Experimental data: PubChem BioAssay AID248 (DTP/NCI, 2004)
Where “and” joins values, the source holds several entries; their conditions need not be identical. Equal values may be shown once. Toxic doses and inconclusive results are not listed.

System: L1210 leukemia ip in BDF1 mice, survival T/C
Test: NCI In Vivo Anticancer Drug Screen. Data for tumor model L1210 Leukemia (intraperitoneal) in B6D2F1 (BDF1) mice
Conditions: higher = longer survival
How it was run: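 Each compound was tested against a transplantable tumor grown in mice. The endpoint was survival, with treated animals benchmarked against vehicle controls as a simple ratio.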

[1] = endpoint: mean survival time, dose: 100.0 mg/kg/injection, schedule: Q01DX001 (ip), vehicle: saline
[2] = endpoint: mean survival time, dose: 200.0 mg/kg/injection, schedule: Q01DX001 (ip), vehicle: saline
[3] = endpoint: mean survival time, dose: 400.0 mg/kg/injection, schedule: Q01DX001 (ip), vehicle: saline
[4] = endpoint: mean survival time, dose: 50.0 mg/kg/injection, schedule: Q01DX001 (ip), vehicle: saline
[5] = endpoint: mean survival time, dose: 100.0 mg/kg/injection, schedule: Q04DX003 (ip), vehicle: saline
[6] = endpoint: mean survival time, dose: 200.0 mg/kg/injection, schedule: Q04DX003 (ip), vehicle: saline

With `Cc1ccc([S+](c2ccccc2)c2cc(C)ccc2C)cc1` (centres undefined) the T/C (endpoint: mean survival time, dose: 2.5 mg/kg/injection, schedule: Q01DX001 (ip), vehicle: carboxymethylcellulose (CMC)) was 103 % of control and the T/C (endpoint: mean survival time, dose: 5.0 mg/kg/injection, schedule: Q01DX001 (ip), vehicle: carboxymethylcellulose (CMC)) was 102 % of control.

With `CCOC(=O)C1=NN(c2ccccc2)C(=O)C1N=Nc1ccc(S(=O)(=O)Nc2nccc(C)n2)cc1` (centres undefined) the T/C [1] was 95 % of control, the T/C [2] was 101 % of control and the T/C [3] was 102 % of control.

In the case of `CN(C)CCC#N`, the T/C [4] is reported as 97 % of control, the T/C (endpoint: mean survival time, dose: 50.0 mg/kg/injection, schedule: Q01DX009 (ip), vehicle: saline) is reported as 106 % of control and the T/C [1] is reported as 97 % of control. For the same compound, the T/C (endpoint: mean survival time, dose: 100.0 mg/kg/injection, schedule: Q01DX009 (ip), vehicle: saline) was 108 % of control, the T/C [5] was 100 % of control and the T/C [2] was 100 % of control. The T/C (endpoint: mean survival time, dose: 200.0 mg/kg/injection, schedule: Q01DX009 (ip), vehicle: saline) was 112 % of control, the T/C [6] was 100 % of control and the T/C [3] was 97 % of control.

For `CC(C)C(C(=O)O)N1C(=O)C2C3CCC(O3)C2C1=O` (centres undefined), the T/C [5] was 98 % of control and 102 % of control, the T/C [6] was 98 % of control and 89 % of control and the T/C (endpoint: mean survival time, dose: 400.0 mg/kg/injection, schedule: Q04DX003 (ip), vehicle: saline) was 98 % of control and 103 % of control.

In the case of `CC1=C(Br)C(=O)C(c2c(C)cc(C)c(Br)c2C)=C(Br)C1=O`, the T/C (endpoint: mean survival time, dose: 50.0 mg/kg/injection, schedule: Q04DX003 (ip), vehicle: Klucel (hydroxypropylcellulose) (HPC)) is reported as 111 % of control, the T/C (endpoint: mean survival time, dose: 100.0 mg/kg/injection, schedule: Q01DX001 (ip), vehicle: Klucel (hydroxypropylcellulose) (HPC)) is reported as 89 % of control and the T/C (endpoint: mean survival time, dose: 100.0 mg/kg/injection, schedule: Q04DX003 (ip), vehicle: Klucel (hydroxypropylcellulose) (HPC)) is reported as 92 % of control. For the same compound, the T/C (endpoint: mean survival time, dose: 200.0 mg/kg/injection, schedule: Q01DX001 (ip), vehicle: Klucel (hydroxypropylcellulose) (HPC)) was 87 % of control and the T/C (endpoint: mean survival time, dose: 200.0 mg/kg/injection, schedule: Q04DX003 (ip), vehicle: Klucel (hydroxypropylcellulose) (HPC)) was 94 % of control.

In the case of `CC(=O)OC(C(N)=O)C(OC(C)=O)C(=O)O` (centres undefined), the T/C (endpoint: mean survival time, dose: 100.0 mg/kg/injection, schedule: Q04DX003 (ip), vehicle: water) is reported as 96 % of control, the T/C (endpoint: mean survival time, dose: 200.0 mg/kg/injection, schedule: Q04DX003 (ip), vehicle: water) is reported as 100 % of control and the T/C (endpoint: mean survival time, dose: 400.0 mg/kg/injection, schedule: Q04DX003 (ip), vehicle: water) is reported as 97 % of control.

`CN(C)P(=O)(N(C)C)N1CC1` was tested, and the T/C (endpoint: mean survival time, dose: 0.75 mg/kg/injection, schedule: Q01DX009 (ip), vehicle: saline) was 98 % of control, the T/C (endpoint: mean survival time, dose: 1.5 mg/kg/injection, schedule: Q01DX009 (ip), vehicle: saline) was 103 % of control and the T/C (endpoint: mean survival time, dose: 3.7 mg/kg/injection, schedule: Q01DX009 (ip), vehicle: saline) was 101 % of control. The T/C (endpoint: mean survival time, dose: 3.75 mg/kg/injection, schedule: Q01DX009 (ip), vehicle: saline) was 98 % of control, the T/C (endpoint: mean survival time, dose: 7.5 mg/kg/injection, schedule: Q01DX009 (ip), vehicle: saline) was 113 % of control and 115 % of control and the T/C (endpoint: mean survival time, dose: 15.0 mg/kg/injection, schedule: Q01DX009 (ip), vehicle: saline) was 120 % of control. The T/C (endpoint: mean survival time, dose: 30.0 mg/kg/injection, schedule: Q01DX001 (ip), vehicle: saline) was 111 % of control and the T/C (endpoint: mean survival time, dose: 30.0 mg/kg/injection, schedule: Q01DX009 (ip), vehicle: saline) was 173 % of control.

For `O=C1NC(c2cccc(OCc3ccccc3)c2)Nc2ccccc21` (centres undefined), the T/C (endpoint: mean survival time, dose: 50.0 mg/kg/injection, schedule: Q01DX009 (ip), vehicle: Klucel (hydroxypropylcellulose) (HPC)) was 105 % of control, the T/C (endpoint: mean survival time, dose: 100.0 mg/kg/injection, schedule: Q01DX009 (ip), vehicle: Klucel (hydroxypropylcellulose) (HPC)) was 107 % of control and the T/C (endpoint: mean survival time, dose: 150.0 mg/kg/injection, schedule: Q01DX009 (ip), vehicle: Klucel (hydroxypropylcellulose) (HPC)) was 109 % of control.

For `O=c1nc(NC(=S)Nc2ccn(C3OC(CO)C(O)C3O)c(=O)n2)ccn1C1OC(CO)C(O)C1O` (centres undefined), the T/C (endpoint: mean survival time, dose: 50.0 mg/kg/injection, schedule: Q01DX001 (ip), vehicle: other) was 104 % of control, the T/C (endpoint: mean survival time, dose: 50.0 mg/kg/injection, schedule: Q01DX001 (ip), vehicle: water) was 103 % of control and 106 % of control and 114 % of control and the T/C (endpoint: mean survival time, dose: 100.0 mg/kg/injection, schedule: Q01DX001 (ip), vehicle: other) was 110 % of control. The T/C (endpoint: mean survival time, dose: 100.0 mg/kg/injection, schedule: Q01DX001 (ip), vehicle: water) was 106 % of control, the T/C (endpoint: mean survival time, dose: 100.0 mg/kg/injection, schedule: Q01DX005 (ip), vehicle: saline) was 168 % of control and 188 % of control and the T/C (endpoint: mean survival time, dose: 200.0 mg/kg/injection, schedule: Q01DX001 (ip), vehicle: other) was 109 % of control and 116 % of control. For the same compound, the T/C [2] was 158 % of control, the T/C (endpoint: mean survival time, dose: 200.0 mg/kg/injection, schedule: Q01DX005 (ip), vehicle: saline) was 206 % of control and 218 % of control and the T/C (endpoint: mean survival time, dose: 400.0 mg/kg/injection, schedule: Q01DX001 (ip), vehicle: other) was 193 % of control. The T/C [3] was 217 % of control, the T/C (endpoint: mean survival time, dose: 400.0 mg/kg/injection, schedule: Q01DX001 (ip), vehicle: water) was 171 % of control and 215 % of control and the T/C (endpoint: mean survival time, dose: 600.0 mg/kg/injection, schedule: Q01DX001 (ip), vehicle: other) was 163 % of control. For the same compound, the T/C (endpoint: mean survival time, dose: 800.0 mg/kg/injection, schedule: Q01DX001 (ip), vehicle: saline) was 452 % of control, the T/C (endpoint: mean survival time, dose: 800.0 mg/kg/injection, schedule: Q01DX001 (ip), vehicle: water) was 196 % of control and 177 % of control and 361 % of control and the T/C (endpoint: mean survival time, dose: 1600.0 mg/kg/injection, schedule: Q01DX001 (ip), vehicle: water) was 368 % of control. For the same compound, the T/C (endpoint: median survival time, dose: 12.5 mg/kg/injection, schedule: Q03HX024 (ip), vehicle: saline) was 180 % of control, the T/C (endpoint: median survival time, dose: 25.0 mg/kg/injection, schedule: Q03HX024 (ip), vehicle: saline) was 180 % of control and the T/C (endpoint: median survival time, dose: 50.0 mg/kg/injection, schedule: Q03HX024 (ip), vehicle: saline) was 295 % of control. The T/C (endpoint: median survival time, dose: 100.0 mg/kg/injection, schedule: Q01DX009 (ip), vehicle: saline) was 190 % of control, the T/C (endpoint: median survival time, dose: 200.0 mg/kg/injection, schedule: Q01DX001 (oral), vehicle: saline) was 104 % of control and the T/C (endpoint: median survival time, dose: 200.0 mg/kg/injection, schedule: Q01DX009 (ip), vehicle: saline) was 152 % of control. The T/C (endpoint: median survival time, dose: 200.0 mg/kg/injection, schedule: Q04DX003 (ip), vehicle: saline) was 195 % of control, the T/C (endpoint: median survival time, dose: 400.0 mg/kg/injection, schedule: Q01DX001 (ip), vehicle: saline) was 185 % of control and the T/C (endpoint: median survival time, dose: 400.0 mg/kg/injection, schedule: Q01DX001 (oral), vehicle: saline) was 104 % of control. The T/C (endpoint: median survival time, dose: 400.0 mg/kg/injection, schedule: Q04DX003 (ip), vehicle: saline) was 233 % of control, the T/C (endpoint: median survival time, dose: 800.0 mg/kg/injection, schedule: Q01DX001 (ip), vehicle: saline) was 233 % of control and the T/C (endpoint: median survival time, dose: 800.0 mg/kg/injection, schedule: Q01DX001 (oral), vehicle: saline) was 100 % of control. For the same compound, the T/C (endpoint: median survival time, dose: 800.0 mg/kg/injection, schedule: Q04DX003 (ip), vehicle: saline) was 342 % of control and the T/C (endpoint: median survival time, dose: 1600.0 mg/kg/injection, schedule: Q01DX001 (ip), vehicle: saline) was 204 % of control.

For `NC(=O)N/N=C/c1ccc[n+]([O-])c1`, the T/C (endpoint: mean survival time, dose: 37.5 mg/kg/injection, schedule: Q04DX002 (ip), vehicle: saline with Tween-80) was 102 % of control, the T/C (endpoint: mean survival time, dose: 75.0 mg/kg/injection, schedule: Q04DX002 (ip), vehicle: saline with Tween-80) was 108 % of control and the T/C (endpoint: mean survival time, dose: 100.0 mg/kg/injection, schedule: Q04DX002 (ip), vehicle: saline with Tween-80) was 86 % of control. For the same compound, the T/C (endpoint: mean survival time, dose: 150.0 mg/kg/injection, schedule: Q04DX002 (ip), vehicle: saline with Tween-80) was 97 % of control and the T/C (endpoint: mean survival time, dose: 400.0 mg/kg/injection, schedule: Q04DX002 (ip), vehicle: saline with Tween-80) was 96 % of control.

`Cc1ccc(Sc2cccc3c2C(=O)c2c(Sc4ccc(C)cc4)cccc2C3(Br)c2ccccc2)cc1` was tested, and the T/C (endpoint: mean survival time, dose: 100.0 mg/kg/injection, schedule: Q01DX009 (ip), vehicle: saline with Tween-80) was 87 % of control, the T/C (endpoint: mean survival time, dose: 100.0 mg/kg/injection, schedule: Q04DX003 (ip), vehicle: saline with Tween-80) was 95 % of control and the T/C (endpoint: mean survival time, dose: 200.0 mg/kg/injection, schedule: Q04DX003 (ip), vehicle: saline with Tween-80) was 97 % of control. For the same compound, the T/C (endpoint: mean survival time, dose: 400.0 mg/kg/injection, schedule: Q01DX009 (ip), vehicle: saline with Tween-80) was 97 % of control and the T/C (endpoint: mean survival time, dose: 400.0 mg/kg/injection, schedule: Q04DX003 (ip), vehicle: saline with Tween-80) was 88 % of control.

`CCCCCCOc1ccc(N=[N+]([O-])c2ccc(OCCCCCC)cc2)cc1` was tested, and the T/C (endpoint: mean survival time, dose: 75.0 mg/kg/injection, schedule: Q01DX001 (ip), vehicle: other) was 91 % of control, the T/C (endpoint: mean survival time, dose: 150.0 mg/kg/injection, schedule: Q01DX001 (ip), vehicle: other) was 91 % of control and the T/C (endpoint: mean survival time, dose: 300.0 mg/kg/injection, schedule: Q01DX001 (ip), vehicle: other) was 87 % of control.

`O=C1CCCCC12CCCC2` was tested, and the T/C (endpoint: mean survival time, dose: 100.0 mg/kg/injection, schedule: Q01DX009 (ip), vehicle: saline sonified) was 97 % of control, the T/C (endpoint: mean survival time, dose: 200.0 mg/kg/injection, schedule: Q01DX009 (ip), vehicle: saline sonified) was 103 % of control and the T/C (endpoint: mean survival time, dose: 400.0 mg/kg/injection, schedule: Q01DX009 (ip), vehicle: saline sonified) was 93 % of control.

`C1CCC(N2CC3CCCC2O3)CC1` (centres undefined) was tested, and the T/C [4] was 101 % of control, the T/C [1] was 97 % of control and the T/C [2] was 95 % of control.
